# Results reported in US11351218B2, “Composition for preventing or treating glioblastoma comprising Platycodon grandiflorum A. De Candolle, Scutellaria baicalensis, Phellodendron amurense Ruprecht or Rubus coreanus” (University-Industry Cooperation Group of Kyung Hee …, priority 2019, dated 2022).
# Residues, ends and D or L forms follow the SMILES beside them. *: point of attachment. Cbz = O=C(OCc1ccccc1)*; CH2F = FC*
# Experiments:
# Ax1 = assay: Western blot of Ax1 expression after natural compounds, U87MG and U373MG cells; assay type: cell-based, human; settings: varying concentrations, 48 hours
# Procedure: Cells were washed with PBS and dissolved using a RIPA buffer (150 mM NaCl, 1% NP-40, 0.5% DOC, 0.1% SDS, 50 mM Tris (pH 8.0), 1 mM EDTA, 1 mM PMSF, 1 mM NaF, 1 mM Na3PO4, 1 μL aprotinin, leupeptin, and pepstatin), and proteins were isolated by centrifugation at 3,000× g for 20 minutes. An equal amount (20 μg) of each of the proteins was separated by 10% sodium dodecyl sulfate-polyacrylamide gel electrophoresis (SDS-PAGE) and the proteins separated using the Trans-blot unit were transferred to a nitrocellulose (NC) membrane. The membrane to which proteins were transferred was blocked with 5% non-fat dry milk (Tris buffered saline (TBS-T) containing 0.1% Tween-20) at room temperature for 1 hour, and primary antibodies, which were diluted at a 1:1,000 concentration, were allowed to react the proteins at 4° C. for 16 hours. After washing with PBS, the resultant was allowed to react with secondary antibodies, which were diluted at a 1:5,000 concentration, at room temperature for 1 hour. A Pierce ECL Western Blotting Substrate, which also underwent a washing process, was coated onto the membrane and allowed to react in a dark room with a film, and thereby, specific protein bands were confirmed. […]
# U87MG and U373MG cells [1] = assay: Cholesterol cell-based detection assay (filipin III staining) in GBM cells; design: species or system human
# Procedure: (§1) FIGS. 15A and 15B show the results that PD promotes accumulation of cholesterol in lysosomes. Cells were treated with DMSO, PD (10 μM), or U18666a (1 μM) for 24 hours. […] Total cholesterol levels are expressed in cholesterol (μg) per protein (mg) of cell lysate and are shown as means±SD from two independent experiments.
# Cells grown on coverslips were treated with the materials. Then, the cells were fixed with 4% PFA at room temperature for 10 minutes. The solution of Filipin III (Cayman) was added for staining of […] cholesterol and the samples were incubated in a dark room for 30 minutes. The images were examined under a Zeiss laser confocal microscope.
# The present inventors concluded that PD inhibits the maturation of autophagosome into autolysosomes by inhibiting lysosomal degradation and an autophagosome-lysosome fusion in GBM cells. […] To examine whether the defect in the autophagosome-lysosome fusion by PD is due to altered intracellular cholesterol levels, the PD-treated GBM cells were stained with filipin-III, which is a fluorescent dye that binds to cholesterol. […] As can be confirmed in FIG. 14A, this filipin-III staining pattern is very similar to that found in GBM cells treated with U18666A, implying that PD blocks cholesterol release from lysosome and accumulates cholesterol in lysosomes.
# U87MG and U373MG cells [2] = assay: Cholesterol measurement (total cholesterol assay kit) in GBM cells; assay type: cell-based, human; settings: PD 10 μM or U18666a 1 μM, 24 hours
# Procedure: as §1
# Cells treated as described above were processed using a total cholesterol assay kit (STA384, Cell Biolabs) according to the manufacterer's instructions. Cholesterol esters and free cholesterol were quantified by homogenizing 10^6 cells extracted from a 200 μL mixture of chloroform: isopropanol: NP-40 (7:11:0.1). After centrifugation of the extract at 15,000× g for 10 minutes, the organic phase was collected and evaporated at 50° C. The extract was resuspended in 200 μL of a 1× cholesterol assay diluent prior to analysis. The colorimetric signal was analyzed using an ELISA reader (Versa Max, Molecular Devices, Sunnyvale, Calif., USA) at 540 nm. Cellular cholesterol results were reported as μg of cholesterol per mg of cell protein.
# LDLR = assay: Immunoblot of LDLR in U87MG, U373MG cells and normal astrocytes; assay type: cell-based, human; settings: PD 5 μM and 10 μM or U18666a 1 μM, 24 hours; U87MG, U373MG and normal astrocytes
# Procedure: (§2) FIGS. 16A to 16D show the results that PD increases the expression of LDLR on cell surfaces in GBM cells. […] GAPDH was used as a loading control. […] GAPDH was used as a loading control.
# (§3) Cells treated with the concentrations and materials described in FIGS. 1-3B, 7, 8, 10, 13, 16, 18, and 20 were lysed in buffer containing 20 mM Tris-HCl (pH 7.5), 150 mM NaCl, 1 mM EDTA, 1 mM Na2EDTA, 1 mM EGTA, 1% NP-40, 1% sodium deoxycholate, 1 mM Na3VO4, 1 mM MPI, 1 mM PMSF, and PI cocktails for 15 to 20 minutes on ice. Cell lysates were separated by SDS-PAGE and transferred to nitrocellulose membranes. Immunodetection was performed with the following primary antibodies: rabbit anti-LC3B, rabbit anti-cathepsin B, rabbit-anti GAPDH (Cell Signaling Technology, Danvers, Mass.), mouse anti-SQSTM1/p62, and goat anti-cathepsin D (Santa CruzKPL, Gaithersburg, Md., USA) were incubated at room temperature for 1 hour. The protein bands were detected with ECL western Blotting Substrate (Thermo Fisher Scientific, Waltham, Mass., USA).
# (§4) Brain is the most cholesterol-rich organ of the body, containing about 20% of total body cholesterol. […] As can be confirmed in FIG. 16A, in consistent with these reports, the LDLR protein level was markedly elevated in U87MG and U373MG cells relative to normal human astrocytes. […] Then, the cell surface expression of LDLR was confirmed by flow cytometry.
# cell-surface LDLR [3] = assay: Cell surface LDLR analysis by flow cytometry, GBM cells; assay type: cell-based, human; settings: PD 10 μM or U18666a 1 μM, 24 hours
# Procedure: as §2
# (§5) Cells treated as described in FIG. 16 were separated from plates and resuspended in PBS. After washing with 1% BSA in PBS, the cells were incubated with a primary antibody against human LDLR (Abcam) for 30 minutes. Then, the cells were washed before incubation with an Alexa-Fluor 488-conjugated secondary antibody (Invitrogen) for 30 minutes. The stained cells were washed and resuspended. Fluorescence was analyzed by a FACScalibur flow cytometer (Becton Dickinson, San Jose, Calif., USA) using CellQuest™ software.
# as §4
# cell-surface LDLR [4] = assay: Cell surface LDLR analysis by flow cytometry, normal astrocytes; assay type: cell-based, human; settings: PD 10 μM or U18666a 1 μM, 24 hours
# Procedure: as §2, §5, §4
# U87MG and U373MG cells [5] = assay: BODIPY FL LDL uptake assay, GBM cells; assay type: cell-based, human; settings: U18 1 μM 24 hours, BODIPY FL LDL 1 hour
# Procedure: (§6) Cells were treated with DMSO, PD (10 μM), or U18 (1 μM) for 24 hours and subsequently loaded with BODIPY™ FL LDL. BODIPY-LDL uptake was visualized by confocal microscopy. Nuclei were stained with DAPI (blue). Quantification shown on the right graph represents a relative fold change from three independent experiments±SD.
# (§7) Cells seeded on coverslips were treated with the materials and then the culture medium was replaced with BODIPY™ FL LDL (Thermo Fisher Scientific) at a working concentration of 5 μg/mL in a medium. The cells were additionally incubated at 37° C. for 1 hour. The degree of LDL uptake was measured using a Zeiss laser confocal microscope.
# (§8) Based on the previous study results of the present inventors that PD increases cell surface LDLR expression and accumulate cholesterol within lysosomes, whether PD can increase the uptake of exogenous LDL was examined Cells pretreated with PD or U18666A were incubated with BODIPY FL-labeled LDL particles for 1 hour and the LDL uptake was observed by a confocal microscope. Upon analysis of these cells, it was observed that PD caused about a 6-fold increase in LDL uptake and it was a level similar to that detected in the U18666A-treated cells.
# normal astrocytes = assay: BODIPY FL LDL uptake assay, normal astrocytes; assay type: cell-based, human; settings: PD 10 μM or U18 1 μM, 24 hours
# Procedure: as §6, §7, §8
# U87MG and U373MG cells [6] = assay: WST1 cell viability assay, GBM cells; assay type: cell-based, human
# Procedure: FIGS. 6A and 6B show the results that PD induces a decrease in cell viability and vacuole formation. […] Data shown represent the means of quintuplicate measurements which were repeated three times. The results are presented as a percentage of control (means±SD).
# Cell cytotoxicity was assessed by WST1 assay. U87 and U373 cells were each seeded in a 96-well plate (5×10^3 cells/well) and treated with different concentrations of platycodin D (PD). Then, cells were incubated with a WST1 reagent (Dogen, Seoul, Korea) for 2 hours before reading the plate. Absorbance was measured at 450 nm using an ELISA reader (Versa Max, Molecular Devices, Sunnyvale, Calif., USA).
# LC3B and SQSTM1/p62 = assay: Immunoblot of LC3B and SQSTM1/p62 in GBM cells (U87MG and U373MG); assay type: cell-based, human; settings: combined treatment MβCD 100 μM and PD 10 μM
# Procedure: FIGS. 2A and 2B show the results that an extract of Platycodon grandiflorum (PG) increases the levels of LC3-II and p62. […] GAPDH was used as a loading control.
# FIGS. 3A to 3C show the results that PD inhibits autophagic flux in GBM cells. […] The expression of LC3B and SQSTM1 was confirmed by immunoblot analysis. […] GAPDH was used as a loading control.
# The human glioma cell lines, U87MG and U373MG, were cultured respectively in RPMI-1640 (Welgene) and DMEM (Welgene, Daegu, Korea) supplemented with 10% fetal bovine serum (FBS, JR Scientific) and 1% antibiotics (Ab, Welgene). All cultures were maintained at 37° C. in a humidified incubator containing 5% CO2.
# as §3
# U87MG and U373MG cells [7] = assay: LysoTracker assay with GFP-LC3B (autophagosome-lysosome fusion) in GBM cells; assay type: cell-based, human; settings: co-treatment MβCD 100 μM and PD 10 μM, 48 hours
# From the text: […] Then, cells were stained with LysoTracker (red) and DAPI (blue). The merged images show an overlap between GFP-LC3 and LysoTracker (yellow). The panels on the right are higher-magnification images of the boxed regions.
# Cultured cells seeded in plates with microscope coverslips were transfected with a pGFP-LC3B plasmid using Lipofectamine 3000 (Thermo Fisher Scientific) according to the manufacturer's instructions. After the transfection, the cells were fixed with 4% paraformaldehyde (PFA) in phosphate-buffered saline (PBS) at room temperature for 10 minutes. The images were examined under a laser confocal microscope (Zeiss, Oberkochen, Baden-Wurttemberg, Germany).
# To stain acidic compartments, 50 nM LysoTrackerRedDND-99 (Thermo Fisher Scientific) was added to a medium at 37° C. with 5% CO2 for 30 minutes prior to fixation. The nuclei were labeled with 4,6-diamidino-2-phenylindole (DAPI, Sigma). The slides were finally mounted using a Faramount mounting medium (Dako, Glostrup, Denmark). The images were examined under a Zeiss laser confocal microscope.
# Experimental Result 11. PD Blocks Fusion of Autophagosomes with Lysosomes. Since p62 was accumulated in autophagosomes by PD treatment, it was speculated that PD may cause the lysosomal dysfunction like bafilomycin A1, which inhibits vacuolar H^+-ATPase (V-ATPase)-dependent lysosomal acidification and blocks autophagosome-lysosome fusion. Thus, the PD-treated cells with LysoTracker Red, which is a marker for acidic compartment including lysosomes was stained to examine the colocalization of GFP-LC3B.
# cathepsin B and D = assay: Immunoblot of cathepsin B and D processing in GBM cells; assay type: cell-based, human; settings: addition of MβCD 100 μM to PD 10 μM-treated cells
# Procedure: Immunoblot analyses for the processing of endogenous CTSB and CTSD are shown (upper, immature form/lower, mature form of CTSB and CTSD). GAPDH was used as a loading control.
# as §3
# To confirm whether PD functions as an autophagy inhibitor, the effects of PD on lysosomal proteases, cathepsin B and D, were examined Autophagy is a lysosome-mediated and self-degradative process that requires lysosomal cysteine proteases known as cathepsins. Since pro-cathepsins are cleaved into a mature form in lysosomes, the 33 kD active cleaved form of cathepsins has been commonly used as a marker for lysosomal activity. As can be confirmed in FIG. 13, while the mature forms of cathepsin B and D proteins were decreased, immature forms of those protein were increased after PD treatment in U87MG and U373MG cells, implying that PD suppresses a lysosomal function by downregulating the lysosomal proteolytic activity.
# U87MG and U373MG cells [8] = assay: Clonogenic assay, GBM cells; assay type: cell-based, human; settings: co-treatment MβCD 100 μM with PD 10 μM or 20 μM, 7 days
# Procedure: FIGS. 19A and 19B show the results that MβCD restores PD-mediated decrease in cell viability. […] Data shown represent the means of quintuplicate measurements which were repeated three times. The results are presented as a percentage of control (means±SD).
# Approximately 2×10^3 cells were seeded into each 6-well plate and then treated as described in FIG. 19. After 7 days, the cells were washed with PBS and stained with 0.5% crystal violet.
# Furthermore, as can be confirmed in FIG. 19B, a colony formation assay was performed to confirm the effects of MβCD on PD-mediated GBM cell death.
compound,measurement,setting,value
O=c1c(O)c(-c2ccc(O)c(O)c2)oc2cc(O)cc(O)c12 [quercetin],expression of Ax1,Ax1,reduced the expression of Ax1
"CCN(CC)CCO[C@H]1CC[C@@]2(C)C(=CC[C@@H]3[C@@H]2CC[C@]2(C)C(=O)CC[C@@H]32)C1 [U18666A, reference compound]",cellular cholesterol distribution (filipin-III staining),"U87MG and U373MG cells [1]; PD 10 μM or U18666a 1 μM, 24 hours",very similar
same,free cholesterol levels,U87MG and U373MG cells [2],significant increase
same,LDLR expression,LDLR,increased the LDLR expression
same,cell surface expression of LDLR,cell-surface LDLR [3],shift of the FL-1 histogram peak toward right
same,changes in peak shift (cell surface LDLR),cell-surface LDLR [4],very negligible
same,LDL uptake level compared with PD,U87MG and U373MG cells [5],similar
same,LDL uptake,normal astrocytes,less effective
"COC(=O)C[C@H](NC(=O)[C@H](C)NC(=O)[C@@H](NC(=O)OCc1ccccc1)C(C)C)C(=O)CF [z-VAD-fmk, reference compound] (Cbz-Val-Ala-Asp(OMe)-CH2F)","cell viability, co-treatment vs PD-alone","U87MG and U373MG cells [6]; z-VAD-fmk 50 μM with PD 10 μM and 20 μM, 48 hours",little impact
"methyl β-cyclodextrin [MβCD, reference compound]",changes in LC3-II and p62 levels increased by PD alone,LC3B and SQSTM1/p62,almost completely restored
same,viability of GBM cells,"U87MG and U373MG cells [6]; combined treatment MβCD 100 μM and PD 10 μM, 72 hours",significantly restored the viability
same,colocalization of GFP-LC3B puncta with LysoTracker Red fluorescence,U87MG and U373MG cells [7],remarkable increase
same,activity of cathepsin B,cathepsin B and D,recovered activity
same,accumulated cholesterol in lysosomes,"U87MG and U373MG cells [1]; PD 10 μM 24 hours, then MβCD 100 μM 48 hours",successfully depleted
same,colony-forming ability,U87MG and U373MG cells [8],almost completely recovered
O=C(O)[C@H]1O[C@@H](Oc2cc3oc(-c4ccccc4)cc(=O)c3c(O)c2O)[C@H](O)[C@@H](O)[C@@H]1O [baicalin],expression of Ax1,Ax1,reduced the expression of Ax1
